Source: patent publication US20230020507A1, “COMPOUND AND USE THEREOF IN TREATING AUTOIMMUNE DISEASES” (PARENCHYMA BIOTECH INC., priority 2019, published 2023)

How the values were obtained:
Type in all cases: in vivo, mouse
[1] = system: C57BL/6 mice with graft-versus-host disease; test: Acute graft-versus-host disease model (allogeneic bone marrow transplantation), severity index; conditions: 20 mg/kg intraperitoneally daily 4 to 9 days after transplantation; 14th day after transplantation; total of 10 points; solvent control 6.20±1.20
Procedure: The spleen of Balb/c IFN-γ knockout mouse (8 to 12 weeks old, female, 18±3 g) was excised, pulverized by adding RPMI medium, and then passed through a 40 μm cell strainer (BD Falcon), thereby obtaining a single cell suspension. The single cell suspension was centrifuged (1200 rpm, 5 minutes), and after discarding the supernatant, 1 ml of ACK (ammonium chloride/potassium bicarbonate) lysis buffer (0.15 M NH4Cl, 1 mM KHCO3, 0.1 mM Na2EDTA) was added, followed by stirring for 1 minute and then washing the same with RPMI medium.
Then, CD90.2^+ T cells were obtained from the cell suspension using Auto MACS pro (Miltenyi Biotec) (positive selection). To obtain bone marrow cells to be transplanted together with the obtained CD90.2^+ T cells, both femurs and tibias of wild-type Balb/c mice (8-12 weeks old, female, 18±3 g) were aseptically acquired. […]
Normal C57BL/6 mice (9 to 11 weeks old, female, 19±3 g) were irradiated with 850 cGy of radiation divided at an interval of 3 hours by using a radiation irradiator. […] The graft-versus-host disease severity index was evaluated at an interval of 2 days by visual observation in a severity index system that was classified into a total of 10 points with 0 to 2 points for each item including reduction of body weight, hair condition, posture, activity and skin change.

[2] = system: IL-6, IL-17A and IL-10 expression in lung tissue; test: mRNA expression of IL-6, IL-17A and IL-10 in lung tissue of GVHD mice (real-time PCR); conditions: 20 mg/kg i.p., 15th day, compared to solvent control
Source text: On the 15th day of the experiment, the lungs of the mice were excised to prepare an mRNA sample. In order to extract mRNA, the […] was ground with a homogenizer to obtain a homogeneous suspension. […] Then, cDNA was synthesized from the isolated RNA by reverse transcription, and the expression of inflammatory cytokines was confirmed through real-time polymerase chain reaction (PCR) using iQ SYBR-Green Supermix (Bio-rad) in the CFX96 (Bio-rad) detection system. Relative values of the enzyme expression levels were compared by the ΔΔct method using GAPDH as a control enzyme. Herein, one (1) fold was set using the normal mouse […] as a control.
The real-time polymerase chain reaction was implemented under the conditions of cycles at an annealing temperature of 58° C., and the following primer sequences were used.

[3] = system: C57BL/6 mice with DSS-induced inflammatory bowel disease; test: Mucosal healing (intestinal epithelial barrier integrity) with FITC-dextran in DSS mice; parameters: dose or concentration left out as unconfirmed; conditions: oral daily 2nd to 9th day, 10th day, 4 hours after FITC-dextran, compared to solvent control
Source text: The 1.5% DSS solution was changed at an interval of 2 days. Sterile distilled water was provided for drinking from the 8th day of the experiment.

[4] = system: C57BL/6 mice with autoimmune encephalomyelitis (EAE); test: Experimental autoimmune encephalomyelitis (EAE) model of multiple sclerosis, severity index; conditions: 20 mg/kg intraperitoneally daily 12th to 17th day
Procedure: On day 0, myelin oligodendrocyte glycoproteins 35-55 (MOG 35-55, Peptron) (200 μg), heat-killed Mycobacterium tuberculosis (Difco, Cat No. 231141) (500 μg), and adjuvant (Complete Freund's adjuvant, Sigma Aldrich, Cat No. F5506) were mixed together and then submerged for 7 minutes. After subcutaneous injection of 100 μl of the submerged peptide into both flanks of each of C57BL/6 mice (7 weeks old, female, 17±2 g), 100 μl of pertussis toxin (Sigma Aldrich. Cat No. P2980) (200 ng) was administered intravenously to the tail.
On the 2nd day of the experiment, the same amount of pertussis toxin was administered intravenously. The mice were checked for immersion leaking from the injected site, and visually observed from the 7th day of the experiment in order to confirm the onset of multiple sclerosis.
The multiple sclerosis index was visually observed and recorded at an interval of 2 days from the 7th day of the experiment in the severity index system classified into 0-5 stages, and autoimmune encephalomyelitis symptoms were indexed according to the following items (see Table 4).

[5] = scale 0-5, solvent control 3.33±0.17

`O=C(Cc1c[nH]c2ccc(Cl)cc12)Nc1ccc(Cl)c(F)n1` [Compound 26, 2-(5-chloro-1H-indol-3-yl)-N-(5-chloro-6-fluoropyridin-2-yl)acetamide] was tested, and the “graft-versus-host disease severity index” value [1] was 2.80±0.80, the “expression level of IL-6 in lung tissue” value [2] was “significantly reduced” and the “expression level of IL-10 in lung tissue” value [2] was “significantly increased”. The “expression level of IL-17A in lung tissue” value [2] was “significantly reduced”, the “Serum FITC-dextran” value [3] was “significantly reduced” and the “treatment effects on EAE severity index compared to solvent control from the 16th day, maintained after administration was stopped” value [4] was “statistically significant treatment effects”. The “severity index (EAE), 18th day, acute reaction period” value [4, 5] was 1.33±0.56 and the “severity index (EAE), 36th day, chronic reaction period” value [4, 5] was 1.33±0.22.
